Measurements reported in US20220251084A1, “PROGRANULIN MODULATORS AND METHODS OF USING THE SAME” (ARKUDA THERAPEUTICS, priority 2019, published 2022).
Where a name gives a salt, the structure may show the parent alone.

Test system: progranulin (PGRN) secretion, BV-2 cells
Test: PGRN assay: progranulin induction cellular assay (ELISA of secreted mouse PGRN)
Assay type: cell-based
Details: not given
Description: Cellular Assays: To measure the efficacy of compounds, a progranulin induction cellular assay in mouse primary microglia (pMG), primary cortical neurons, and BV-2 cell lines is used. BV-2 cells are split the day before plating into a 96 well plate format at approximately 80%. Cells should be plated the day before and allowed for 1 hour attachment period and for 16 hour incubation. […] Standard ELISA kits to measure PGRN are available from vendors such as Adipogen, R&D, and Biovendor.

| SMILES | EC50 |
| --- | --- |
| N#Cc1ccc2c(c1)[C@@H](c1ccc(F)cc1)N(C(=O)O[C@@H]1CN3CCC1CC3)CC2 [Compound 2036] | > 10000 nM |
| N#Cc1ccc2c(c1)[C@H](c1ccc(F)cc1)N(C(=O)O[C@@H]1CN3CCC1CC3)CC2 [Compound 2035] | > 10000 nM |
| O=C(O[C@@H]1CN2CCC1CC2)N1CCc2cccnc2[C@@H]1c1ccc(F)cc1 [Compound 2054, (S)-quinuclidin-3-yl 8-(4-fluorophenyl)-5,6-dihydro-1,7-naphthyridine-7(8H)-carboxylate] | 4740 nM |
| Fc1ccc(C2c3ccccc3CCN2C(C[C@@H]2CN3CCC2CC3)C(F)(F)F)cc1 (stereo partly drawn) [Compound 2133] | 9760 nM |
| O=C(O[C@@H]1CN2CCC1CC2)N1CCn2ccnc2C1c1ccc(F)cc1 (stereo partly drawn) [Compound 2123, (S)-quinuclidin-3-yl 8-(4-fluorophenyl)-5,6-dihydroimidazo[1,2-a]pyrazine-7(8H)-carboxylate] | > 10000 nM |

Same assay, conditions: Mus musculus, BV-2

| SMILES | EC50 |
| --- | --- |
| CS(=O)(=O)c1ccc2c(c1)[C@H](c1ccc(F)cc1)N(C(=O)O[C@@H]1CN3CCC1CC3)CC2 [Compound 2031] | 5750 nM |

Same assay, conditions: Mus musculus, BV-2, PGRN assay, Table C; secreted mouse PGRN in cell culture medium, ELISA

| SMILES | EC50 |
| --- | --- |
| O=C(OCC1CCN(CC(F)(F)F)CC1)N1CCc2ccccc2[C@@H]1c1ccc(F)cc1 [Compound 2107] | > 10000 nM |
| CNC(=O)c1ccc2c(c1)CCN(C(=O)N[C@@H]1CN3CCC1CC3)[C@@H]2c1ccc(F)cc1 [Compound 2091] | > 10000 nM |
| CN1CCO[C@H](COC(=O)N2CCc3ccccc3[C@@H]2c2ccc(F)cc2)C1 [Compound 2004] | 1050 nM |
| C#CCOc1ccc2c(c1)CCN(C(=O)NCC13CCN(CC1)CC3)[C@H]2c1ccc(F)cc1 [Compound 2084] | > 10000 nM |
| CN1CCC2(CC1)CCN(C(=O)N1CCc3ccccc3[C@@H]1c1ccc(F)cc1)C2 [Compound 2121] | > 10000 nM |
| O=S(=O)(CCC12CCN(CC1)CC2)N1CCc2ccccc2[C@@H]1c1ccc(F)cc1 [Compound 2058, (S)-4-(2-(1-(4-fluorophenyl)-3,4-dihydroisoquinolin-2(1H)-ylsulfonyl)ethyl)quinuclidine] | 3000 nM |
| CN1CCO[C@@H](COC(=O)N2CCc3ccccc3[C@@H]2c2ccc(F)cc2)C1 [Compound 2005] | 587 nM |
| COc1ncc(COc2ccc([C@H]3c4ccccc4CCN3C(=O)OCC34CCN(CC3)CC4)cc2)cn1 [Compound 2145] | 2930 nM |
| CN1CCC(COC(=O)N2CCc3ccccc3[C@@H]2c2cccc(F)c2F)CC1 [Compound 2134] | > 10000 nM |
| COC(=O)c1ccc2c(c1)CCN(C(=O)NCC13CCN(CC1)CC3)[C@@H]2c1ccc(F)cc1 [Compound 2069] | 4130 nM |
| O=C(OCC12CCN(CC1)CC2)N1CCc2ccccc2[C@H]1c1cc(F)cc(F)c1 (single isomer, unassigned) [Compound 2141, quinuclidin-4-ylmethyl-1-(3,5-difluorophenyl)-3,4-dihydroisoquinoline-2(1H)-carboxylate] | > 10000 nM |
| COC(=O)c1ccc2c(c1)CCN(C(=O)N[C@@H]1CN3CCC1CC3)[C@@H]2c1ccc(F)cc1 [Compound 2089] | > 10000 nM |
| O=C([C@@H](O)CC12CCN(CC1)CC2)N1CCc2ccccc2[C@@H]1c1ccc(F)cc1 (single isomer, unassigned) [Compound 2153] | > 10000 nM |
| CN1CCC2(CCCN2C(=O)N2CCc3ccccc3[C@@H]2c2ccc(F)cc2)CC1 [Compound 2120, (S)-(1-(4-fluorophenyl)-3,4-dihydroisoquinolin-2(1H)-yl)(8-methyl-1,8-diazaspiro[4.5]decan-1-yl)methanone] | 2680 nM |
| O=C(OCCC12CCN(CC1)CC2)N1CCc2ccccc2[C@@H]1c1ccc(F)cc1 [Compound 2130, 2-(quinuclidin-4-yl)ethyl (S)-1-(4-fluorophenyl)-3,4-dihydroisoquinoline-2(1H)-carboxylate] | > 3160 nM |
| CNC(=O)c1ccc2c(c1)[C@H](c1ccc(F)cc1)N(C(=O)N[C@@H]1CN3CCC1CC3)CC2 [Compound 2118, (S)-1-(4-fluorophenyl)-N7-methyl-N2-((S)-quinuclidin-3-yl)-3,4-dihydroisoquinoline-2,7(1H)-dicarboxamide] | > 10000 nM |
| N#Cc1ccc2c(c1)CCN(C(=O)N[C@@H]1CN3CCC1CC3)[C@H]2c1ccc(F)cc1 [Compound 2014] | 2320 nM |
| C#CCOc1ccc2c(c1)CCN(C(=O)OCC13CCN(CC1)CC3)[C@@H]2c1ccc(F)cc1 [Compound 2079] | 4830 nM |
| N#Cc1ccc2c(c1)[C@H](c1ccc(F)cc1)N(C(=O)N[C@@H]1CN3CCC1CC3)CC2 [Compound 2038, 7-cyano-1-(4-fluorophenyl)-N—((S)-quinuclidin-3-yl)-3,4-dihydroisoquinoline-2(1H)-carboxamide] | > 10000 nM |
| O=C(OCC12CCN(CC1)CC2)N1CCc2ccccc2[C@H]1c1cccc(F)c1F [Compound 2113] | 596 nM |
| O=C(OCC12CCN(CC1)CC2)N1CCc2ccccc2[C@@H]1c1ccc(OCc2cncnc2)cc1 [Compound 2149] | > 10000 nM |
| COc1ccc(COc2ccc([C@@H]3c4ccccc4CCN3C(=O)OCC34CCN(CC3)CC4)cc2)cc1 [Compound 2137] | > 3160 nM |
| O=C(N[C@@H]1CN2CCC1CC2)C(=O)N1CCc2ccccc2[C@@H]1c1ccc(F)cc1 [Compound 2104] | 1610 nM |
| CN1CCC(COC(=O)N2CCc3ccccc3[C@@H]2c2ccc(F)cc2F)CC1 [Compound 2105] | 1070 nM |
| CN1CCC(COC(=O)N2CCc3ccccc3[C@H]2c2cc(F)cc(F)c2)CC1 [Compound 2109] | > 10000 nM |
| O=C(O[C@@H]1[C@@H]2CC[C@H]1CNC2)N1CCc2ccccc2[C@@H]1c1ccc(F)cc1 (single isomer, unassigned) [Compound 2103] | 4280 nM |

Same assay, conditions: Mus musculus, BV-2, PGRN assay, Table D; secreted mouse PGRN in cell culture medium, ELISA

| SMILES | EC50 |
| --- | --- |
| O=C(O[C@H]1CNCC1(F)F)N1CCc2ccccc2[C@@H]1c1ccc(F)cc1 [Compound 2241] | 8790 nM |
| O=C(O[C@H]1C[N@]2CC[C@H]1C2)N1CCc2ccccc2[C@@H]1c1ccc(F)cc1 [Compound 2204] | 650 nM |
| CN(C)C1CCN(C(=O)N2CCc3ccccc3[C@@H]2c2ccc(F)cc2)C1 (stereo in doubt) [Compound 2311, ((R)-3-(dimethylamino)pyrrolidin-1-yl)((S)-1-(4-fluorophenyl)-3,4-dihydroisoquinolin-2(1H)-yl)methanone] | 1320 nM |
| O=C(NC1(C2CCNCC2)CC1)N1CCc2ccccc2[C@@H]1c1ccc(F)cc1 [Compound 2208] | 7220 nM |
| O=C(N1CCCNCC1)N1CCc2ccccc2[C@@H]1c1ccc(F)cc1 [Compound 2264, (S)-(1,4-diazepan-1-yl)(1-(4-fluorophenyl)-3,4-dihydroisoquinolin-2(1H)-yl)methanone] | 1060 nM |
| O=C(O[C@H]1CNC[C@H]1F)N1CCc2ccccc2[C@@H]1c1ccc(F)cc1 [Compound 2362] | > 3160 nM |
| NC[C@H]1CCN(C(=O)N2CCc3ccccc3[C@@H]2c2ccc(F)cc2)C1 [Compound 2288] | 248 nM |
| O=C(N[C@H]1CNC[C@H]1F)N1CCc2ccccc2[C@@H]1c1ccc(F)cc1 [Compound 2352] | 125 nM |
| CN1C[C@H](NC(=O)N2CCc3ccccc3[C@H]2c2ccc(F)cc2)C2(CC2)C1 [Compound 2316] | 453 nM |
| O=C(O[C@@H]1CNC[C@H]1F)N1CCc2ccccc2[C@@H]1c1ccc(F)cc1 [Compound 2349, (3R,4R)-4-fluoropyrrolidin-3-yl (S)-1-(4-fluorophenyl)-3,4-dihydroisoquinoline-2(1H)-carboxylate] | 346 nM |
| O=C(O[C@@H]1CCNC1)N1CCc2ccccc2[C@H]1c1ccc(F)cc1 [Compound 2266, (R)-pyrrolidin-3-yl (R)-1-(4-fluorophenyl)-3,4-dihydroisoquinoline-2(1H)-carboxylate] | 255 nM |
| O=C(N[C@@H]1CNCC12CC2)N1CCc2ccccc2[C@@H]1c1ccc(F)cc1 [Compound 2281] | 273 nM |
| CN1[C@H]2CC[C@@H]1[C@@H](NC(=O)N1CCc3ccccc3[C@@H]1c1ccc(F)cc1)C2 [Compound 2226] | 2680 nM |
| CN1[C@@H]2CC[C@H]1[C@@H](NC(=O)N1CCc3ccccc3[C@@H]1c1ccc(F)cc1)C2 [Compound 2224] | 480 nM |
| O=C(OC[C@]1(F)CCNC1)N1CCc2ccccc2[C@@H]1c1ccc(F)cc1 [Compound 2256] | 170 nM |
| O=C(NCC1(F)CNC1)N1CCc2ccccc2[C@@H]1c1ccc(F)cc1 [Compound 2231] | 1040 nM |
| O=C(OCC[C@@H]1CN2CCC1CC2)N1CCc2ccccc2[C@@H]1c1ccc(F)cc1 [Compound 2206, 2-((S)-quinuclidin-3-yl)ethyl (S)-1-(4-fluorophenyl)-3,4-dihydroisoquinoline-2(1H)-carboxylate formate] | 1990 nM |
| N[C@H]1CCN(C(=O)N2CCc3ccccc3[C@H]2c2ccc(F)cc2)C1 (single isomer, unassigned) [Compound 2285] | 3440 nM |
| O=C(O[C@H]1CNC[C@@H]1F)N1CCc2ccccc2[C@@H]1c1ccc(F)cc1 [Compound 2361, (3S,4S)-4-fluoropyrrolidin-3-yl (S)-1-(4-fluorophenyl)-3,4-dihydroisoquinoline-2(1H)-carboxylate] | 365 nM |

Same assay, conditions: PGRN assay, Table C; secreted mouse PGRN in cell culture medium, ELISA

| SMILES | EC50 |
| --- | --- |
| O=C(OC1CCNCC1)N1CCc2ccccc2[C@@H]1c1ccc(F)cc1 [Compound 2161] | > 10000 nM |
| O=C(OC1CCNCC1)N1CCc2ccccc2[C@@H]1c1ccc(F)cc1 [Compound 2176] | 290 nM |
| O=C(OC1CNC1)N1CCc2ccccc2[C@@H]1c1ccc(F)cc1 [Compound 2162] | > 10000 nM |
| O=C(OC1[C@@H]2CC3C[C@@H]1CN(C3)C2)N1CCc2ccccc2[C@@H]1c1ccc(F)cc1 (stereo partly drawn) [Compound 2098] | 339 nM |
| O=C(OC1CNC1)N1CCc2ccccc2[C@@H]1c1ccc(F)cc1 [Compound 2177] | > 3160 nM |

Same assay, conditions: PGRN assay, Table D; secreted mouse PGRN in cell culture medium, ELISA

| SMILES | EC50 |
| --- | --- |
| O=C(N[C@H]1CNCCOC1)N1CCc2ccccc2[C@@H]1c1ccc(F)cc1 (single isomer, unassigned) [Compound 2276] | 1050 nM |
